Entries after “also recorded” stand apart in the source; their conditions may differ.
What was measured:
[1] = target: human nociceptin receptor (Homo sapiens, UniProt P41146); type: binding
Swiss-Webster mice [2] = settings: mouse, in vivo
[3] = administered intracerebroventricularly; cited from earlier work
Swiss-Webster mice [4] = settings: mouse, in vivo; remark: listed apart in the source
Swiss-Webster mice [5] = settings: mouse, in vivo; remark: listed apart in the source
[6] = mouse, in vivo

human nociceptin receptor, sequence (P41146 whole entry): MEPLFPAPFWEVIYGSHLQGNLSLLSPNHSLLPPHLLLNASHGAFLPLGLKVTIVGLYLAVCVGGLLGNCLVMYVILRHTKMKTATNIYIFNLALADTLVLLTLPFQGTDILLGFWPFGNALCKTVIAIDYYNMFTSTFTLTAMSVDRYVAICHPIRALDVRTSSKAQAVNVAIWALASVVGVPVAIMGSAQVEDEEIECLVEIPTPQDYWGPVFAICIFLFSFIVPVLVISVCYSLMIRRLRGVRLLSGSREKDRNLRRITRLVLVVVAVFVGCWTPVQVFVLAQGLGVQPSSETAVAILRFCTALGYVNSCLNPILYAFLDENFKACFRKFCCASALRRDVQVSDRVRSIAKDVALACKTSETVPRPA

## Buprenorphine
[1]
  affinity for the nociceptin receptor (in words): low affinity
Swiss-Webster mice [2]
  dose with the greatest analgesic response: 0.3 mg/kg
  time to onset of antinociception: 30 min
  time to peak antinociceptive effect: 45 min

## CN1CC[C@]23c4c5ccc(O)c4O[C@H]2[C@@H](O[C@@H]2O[C@H](C(=O)O)[C@@H](O)[C@H](O)[C@H]2O)C=C[C@H]3[C@H]1C5 [Morphine-6-glucuronide]
[3]
  potency relative to morphine: 300 times

## CO[C@]12CC[C@@]3(C[C@@H]1[C@](C)(O)C(C)(C)C)[C@H]1Cc4ccc(O[C@@H]5O[C@H](C(=O)O)[C@@H](O)[C@H](O)[C@H]5O)c5c4[C@@]3(CCN1CC1CC1)[C@H]2O5 [Buprenorphine-3-glucuronide, buprenorphine-3-glucuronide]
[1]; read-out: apparent Ki, Nociceptin
  Ki: 36 ± 0.3 µM
Swiss-Webster mice [4]
  total locomotor activity compared to control / sedation (in words): did not cause a decrease
Swiss-Webster mice [2]
  antinociceptive effect (in words): small antinociceptive effect; also recorded: mild antinociceptive activity
Swiss-Webster mice [5]
  effect on minute ventilation (in words): Neither buprenorphine nor B3G affected
  effect on respiratory rate (in words): Neither B3G nor N3G had a significant effect
[6]
  Concentration, Brain Homogenate: 1.4 ± 0.7 ng/mL
  Concentration, Plasma: 133 ± 44 ng/mL

Source: article PMC3560935 (Anesthesiology, 2011)
